# Columns and labels:
# DLD-1 = test: Cytotoxicity against human DLD1 cells after 72 hrs by MTT colorimetric assay; type: functional; conditions: DLD-1, 72 h
# [1] = Cytotoxicity against human U87 cells after 72 hrs by MTT colorimetric assay; type: functional, U-87MG ATCC; conditions: U-87 MG
# HeLa = test: Cytotoxicity against human HeLa cells after 72 hrs by MTT colorimetric assay; type: functional
# SiHa = test: Cytotoxicity against human SiHa cells after 72 hrs by MTT colorimetric assay; type: functional
# [2] = Cytotoxicity against human A172 cells after 72 hrs by MTT colorimetric assay; type: functional; conditions: A 172, 72 h
# B16 = test: Cytotoxicity against mouse B16 cells after 72 hrs by MTT colorimetric assay; type: functional; conditions: B16, 72 h
SMILES,GI50 (DLD-1),GI50 [1],GI50 (HeLa),GI50 (SiHa),GI50 [2],GI50 (B16)
C=C(C)c1cn([C@@H]2O[C@@H]3O[C@@]4(C)CC[C@H]5[C@H](C)CC[C@@H]([C@H]2C)[C@@]35OO4)nn1,23 µM,830 nM,310 nM,1130 nM,1310 nM,1320 nM
C[C@@H]1[C@@H](n2cc(-c3ccccc3)nn2)O[C@@H]2O[C@@]3(C)CC[C@H]4[C@H](C)CC[C@@H]1[C@@]24OO3,29.7 µM,2860 nM,720 nM,3220 nM,2500 nM,8780 nM
COc1ccc(-c2cn([C@@H]3O[C@@H]4O[C@@]5(C)CC[C@H]6[C@H](C)CC[C@@H]([C@H]3C)[C@@]46OO5)nn2)cc1,6.68 µM,1220 nM,560 nM,350 nM,1210 nM,900 nM
C[C@H]1[C@H](n2cc(-c3ccc(F)cc3)nn2)O[C@@H]2O[C@@]3(C)CC[C@H]4[C@H](C)CC[C@@H]1[C@@]24OO3,0.14 µM,340 nM,600 nM,350 nM,420 nM,430 nM
C[C@H]1[C@H](n2cc(-c3cccc(Cl)c3)nn2)O[C@@H]2O[C@@]3(C)CC[C@H]4[C@H](C)CC[C@@H]1[C@@]24OO3,14.2 µM,160 nM,80 nM,150 nM,370 nM,60 nM
C[C@H]1[C@@H](N=[N+]=[N-])O[C@@H]2O[C@@]3(C)CC[C@H]4[C@H](C)CC[C@@H]1[C@@]24OO3,9.44 µM,1970 nM,490 nM,1130 nM,2310 nM,> 50000 nM
C[C@H]1[C@H](N=[N+]=[N-])O[C@@H]2O[C@@]3(C)CC[C@H]4[C@H](C)CC[C@@H]1[C@@]24OO3,> 50 µM,1060 nM,1930 nM,1470 nM,890 nM,1560 nM
Cc1ccc(-c2cn([C@@H]3O[C@@H]4O[C@@]5(C)CC[C@H]6[C@H](C)CC[C@@H]([C@H]3C)[C@@]46OO5)nn2)cc1,0.08 µM,110 nM,50 nM,150 nM,330 nM,240 nM
CCCCCc1ccc(-c2cn([C@@H]3O[C@@H]4O[C@@]5(C)CC[C@H]6[C@H](C)CC[C@@H]([C@H]3C)[C@@]46OO5)nn2)cc1,0.03 µM,80 nM,30 nM,90 nM,100 nM,80 nM
C[C@H]1[C@H](n2cc(-c3ccccc3)nn2)O[C@@H]2O[C@@]3(C)CC[C@H]4[C@H](C)CC[C@@H]1[C@@]24OO3,12.1 µM,430 nM,210 nM,540 nM,450 nM,1250 nM
C[C@@H]1[C@@H](N=[N+]=[N-])O[C@@H]2O[C@@]3(C)CC[C@H]4[C@H](C)CC[C@@H]1[C@@]24OO3,> 50 µM,11200 nM,> 50000 nM,9070 nM,16800 nM,> 50000 nM
C[C@H]1[C@H](n2cc(-c3cc(F)cc(F)c3)nn2)O[C@@H]2O[C@@]3(C)CC[C@H]4[C@H](C)CC[C@@H]1[C@@]24OO3,22.9 µM,140 nM,140 nM,200 nM,290 nM,160 nM
C[C@H]1[C@@H](n2cc(-c3ccccc3)nn2)O[C@@H]2O[C@@]3(C)CC[C@H]4[C@H](C)CC[C@@H]1[C@@]24OO3,0.52 µM,230 nM,130 nM,260 nM,220 nM,300 nM
CC(=O)O[C@H]1C(=O)[C@@]2(C)[C@H]([C@H](OC(=O)c3ccccc3)[C@]3(O)C[C@H](OC(=O)[C@H](O)[C@@H](NC(=O)c4ccccc4)c4ccccc4)C(C)=C1C3(C)C)[C@]1(OC(C)=O)CO[C@@H]1C[C@@H]2O [PACLITAXEL],0.01 µM,20 nM,20 nM,30 nM,10 nM,10 nM

# Source: ChEMBL document CHEMBL1154540, “Synthesis of 10-substituted triazolyl artemisinins possessing anticancer activity via Huisgen 1,3-dipolar cylcoaddition” (2009)
